Test results published in patent publication US20230133118A1, “COMPOSITIONS AND METHODS FOR TREATING CANCER” (Adagene AG, priority 2020, published 2023).
Values joined by “and” are separate entries in the source; they are usually repeats but may differ in a detail not shown here. Identical values can stand only once. Marks after values point to notes of the source that are not given here.

What was measured:
[1] = tested on: C1q, human FcγR1; assay: C1q and FcγR1 binding, NK cell ADCC on activated human CD8+ T cells
[2] = target: CD137 (Homo sapiens, UniProt Q07011); assay: Cellular NFκB reporter gene assay (CD137-expressing NFκB-Luc Jurkat reporter cells); type: cell-based; parameters: expressed in transfected cells; host or cells: NFκB-Luc Jurkat reporter cells (with or without co-cultured CHO-K1 cells expressing human FcγRIIb)
CD137, sequence (Q07011 24-255): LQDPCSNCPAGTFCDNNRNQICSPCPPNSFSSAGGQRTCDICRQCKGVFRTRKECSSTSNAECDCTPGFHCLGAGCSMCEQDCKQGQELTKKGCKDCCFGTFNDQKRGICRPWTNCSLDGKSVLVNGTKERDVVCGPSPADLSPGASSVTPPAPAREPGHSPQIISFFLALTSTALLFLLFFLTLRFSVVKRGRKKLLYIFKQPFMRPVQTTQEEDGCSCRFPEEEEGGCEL
Experimental: The CD137-expressing NFκB-Luc Jurkat reporter cells were stimulated with the anti-CD137 antibodies in the absence (left panel) or presence (right panel) of co-cultured CHO-K1 cell expressing human FcγRIIb. Luciferase activity was measured by bioluminescence assay.

[3] = tested on: 3LL (JCRB) murine lung cancer cells; assay: 3LL lung cancer model, ADG106 with atezolizumab; type: in vivo, C57BL/6 mice; settings: 10 mg/kg i.p. twice a week for 3 weeks
Excerpt: C57BL/6 mice (n=10 per group, female, 6-8 weeks old) were inoculated subcutaneously with 3LL (JCRB) murine lung cancer cells, a Lewis lung cancer cell line.

[4] = tested on: NK (CD16+/CD56+) cells; assay: TBNK flow cytometry of patient peripheral blood, NK cell percentage; type: in vivo, human; settings: for Percentage of NK cells (CD3-CD56+/CD16+), Postdose: individual patients
Experimental: Pre- and post-treatment peripheral blood samples from 31 patients in a phase 1 trial were collected for biomarker analyses. The TBNK flow cytometry assay was employed to measure the composition of T (CD3+, CD4+/CD8+ subsets), B (CD19+) and NK (CD16+/CD56+) cells in peripheral blood samples. NK cell levels were determined as percentages of CD45+ lymphocytes and absolute cell counts.

Q: Which results are given for “ADG106: fully human agonistic anti-CD137 monoclonal IgG4 antibody; heavy chain SEQ ID NO: 10, light chain SEQ ID NO: 11”?
A: C1q binding [1]: unable to bind C1 q; binding affinity for human FcγR1 protein [1]: low binding affinity; NK cell antibody-dependent cell-mediated cytotoxicity on activated human CD8+ T cells ([1]; human whole cell assays): did not show detectable; concentration saturating activation of CD137 receptor signaling ([2]; crosslinking-dependent, in vitro): 1 µg/mL; EC80 of NFκB signaling activation ([2]; nonlinearly regressed concentration-effect curve): ≤ 1.8 µg/mL; human CD137 agonism following crosslinking ([2]; with crosslinking): function as agonists; anti-tumor activity, monotherapy [3]: showed anti-tumor activity; Percentage of NK cells (CD3-CD56+/CD16+), Postdose ([4]; C1D8): 25.14% and 28.38% and 11.18% and 22.03% and 35.85% and 36.13% and 8.25% and 22.79% and 46.22% and 15.01% and 14.06% and 34.54% and 11.84% and 32.43% and 10.14% and 23.1% and 55% and 35.4% and 19.5% and 14.7% and 25%; Percentage of NK cells (CD3-CD56+/CD16+), Postdose ([4]; C1D15): 21.21* % and 22.19* %; Percentage of NK cells (CD3-CD56+/CD16+), Postdose ([4]; C1D21): 39.58^# % and 4.27^# % and 20.01^# % and 34.74^# % and 40.45^# % and 26.93^# % and 27.23^# % and 18.81^# % and 16.65^# %; dose saturating CD137 receptors on NK cells (NK cell proliferation effect) ([4]; patients): ≥ 1.5 mg/kg
